# Data from ChEMBL document CHEMBL1159158, “Cyclic urea HIV protease inhibitors containing alkynyl- and alkenyl-tethered heterocycles in the P2 region” (Bioorg Med Chem Lett, 1996).
# Target: Human immunodeficiency virus type 1 protease (Human immunodeficiency virus 1) (UniProt Q72874)
# Assay: Compound was evaluated for its antiviral activity against HIV-Protease in cell based assay.
row,SMILES,IC90 [µM]
1,O=C1N(C/C=C/c2cn[nH]c2)[C@H](Cc2ccccc2)[C@H](O)[C@@H](O)[C@@H](Cc2ccccc2)N1C/C=C/c1cn[nH]c1,0.37
2,O=C1N(C/C=C/c2cn[nH]c2)[C@H](Cc2ccccc2)[C@H](O)[C@@H](O)[C@@H](Cc2ccccc2)N1CC1CC1,0.82

# Target: T1, Human immunodeficiency virus type 1 protease (Human immunodeficiency virus 1, UniProt Q72874)
# Assay: Compound was evaluated for binding affinity towards HIV-Protease enzyme.
row,SMILES,Ki [µM]
1,O=C1N(C/C=C/c2cn[nH]c2)[C@H](Cc2ccccc2)[C@H](O)[C@@H](O)[C@@H](Cc2ccccc2)N1C/C=C/c1cn[nH]c1,0.00025
2,O=C1N(C/C=C/c2cn[nH]c2)[C@H](Cc2ccccc2)[C@H](O)[C@@H](O)[C@@H](Cc2ccccc2)N1CC1CC1,0.00041

# Target: T1, Human immunodeficiency virus type 1 protease
# Assay: Binding affinity to HIV-protease
row,SMILES,Ki [µM]
1,CC1(C)O[C@@H]2[C@@H](O1)[C@@H](Cc1ccccc1)N(CC#Cc1cn[nH]c1)C(=O)N(CC#Cc1cn[nH]c1)[C@@H]2Cc1ccccc1,≥ 1
2,O=C1N(CC#Cc2cncnc2)[C@H](Cc2ccccc2)[C@H](O)[C@@H](O)[C@@H](Cc2ccccc2)N1CC#Cc1cncnc1,≥ 1
3,CC1(C)O[C@@H]2[C@@H](O1)[C@@H](Cc1ccccc1)N(CC#Cc1cccnc1)C(=O)N(CC#Cc1cccnc1)[C@@H]2Cc1ccccc1,≥ 1
4,CC1(C)O[C@@H]2[C@@H](O1)[C@@H](Cc1ccccc1)N(CC#Cc1cccs1)C(=O)N(CC#Cc1cccs1)[C@@H]2Cc1ccccc1,≥ 1
5,CC1(C)O[C@@H]2[C@@H](O1)[C@@H](Cc1ccccc1)N(CC#Cc1ccsc1)C(=O)N(CC#Cc1ccsc1)[C@@H]2Cc1ccccc1,≥ 1
6,O=C1N(CC#Cc2cccnc2)[C@H](Cc2ccccc2)[C@H](O)[C@@H](O)[C@@H](Cc2ccccc2)N1CC#Cc1cccnc1,≥ 1
7,O=C1N(CC#Cc2cc3ccccc3cn2)[C@H](Cc2ccccc2)[C@H](O)[C@@H](O)[C@@H](Cc2ccccc2)N1CC#Cc1cc2ccccc2cn1,≥ 1
8,O=C1N(CC#Cc2cccs2)[C@H](Cc2ccccc2)[C@H](O)[C@@H](O)[C@@H](Cc2ccccc2)N1CC#Cc1cccs1,≥ 1
9,CCN(CC)CC#CCN1C(=O)N(CC#CCN(CC)CC)[C@H](Cc2ccccc2)[C@H](O)[C@@H](O)[C@H]1Cc1ccccc1,≥ 1
10,COCCOCn1cc(C#CCN2C(=O)N(CC#Cc3cnn(COCCOC)c3)[C@H](Cc3ccccc3)[C@H](O)[C@@H](O)[C@H]2Cc2ccccc2)cn1,≥ 1
11,O=C1N(CC#CCN2CCCCC2)[C@H](Cc2ccccc2)[C@H](O)[C@@H](O)[C@@H](Cc2ccccc2)N1CC#CCN1CCCCC1,≥ 1
12,O=C1N(CC#CCN2CCOCC2)[C@H](Cc2ccccc2)[C@H](O)[C@@H](O)[C@@H](Cc2ccccc2)N1CC#CCN1CCOCC1,≥ 1
13,O=C1N(CC#Cc2cnc3ccccc3c2)[C@H](Cc2ccccc2)[C@H](O)[C@@H](O)[C@@H](Cc2ccccc2)N1CC#Cc1cnc2ccccc2c1,≥ 1
14,CC1(C)O[C@@H]2[C@@H](O1)[C@@H](Cc1ccccc1)N(CC#Cc1cncnc1)C(=O)N(CC#Cc1cncnc1)[C@@H]2Cc1ccccc1,≥ 1
15,CC(C)(C)OC(=O)n1cc(C#CCN2C(=O)N(CC#Cc3cnn(C(=O)OC(C)(C)C)c3)[C@H](Cc3ccccc3)[C@@H]3OC(C)(C)O[C@H]3[C@H]2Cc2ccccc2)cn1,≥ 1
16,CC(C)N(CC#CCN1C(=O)N(CC#CCN(C(C)C)C(C)C)[C@H](Cc2ccccc2)[C@H](O)[C@@H](O)[C@H]1Cc1ccccc1)C(C)C,≥ 1
17,O=C1N(CC#Cc2cn[nH]c2)[C@H](Cc2ccccc2)[C@H](O)[C@@H](O)[C@@H](Cc2ccccc2)N1CC#Cc1cn[nH]c1,≥ 1
18,COCCOCn1cc(C#CCN2C(=O)N(CC#Cc3cnn(COCCOC)c3)[C@H](Cc3ccccc3)[C@@H]3OC(C)(C)O[C@H]3[C@H]2Cc2ccccc2)cn1,≥ 1
19,CC1(C)O[C@@H]2[C@@H](O1)[C@@H](Cc1ccccc1)N(CC#Cc1cc3ccccc3cn1)C(=O)N(CC#Cc1cc3ccccc3cn1)[C@@H]2Cc1ccccc1,≥ 1
20,CC1(C)O[C@@H]2[C@@H](O1)[C@@H](Cc1ccccc1)N(CC#Cc1cnc3ccccc3c1)C(=O)N(CC#Cc1cnc3ccccc3c1)[C@@H]2Cc1ccccc1,≥ 1
21,C#CCN1C(=O)N(CC#C)[C@H](Cc2ccccc2)[C@@H]2OC(C)(C)O[C@H]2[C@H]1Cc1ccccc1,0.022
22,CC(C)(C)OC(=O)C1CCCN1CC#CCN1C(=O)N(CC#CCN2CCCC2C(=O)OC(C)(C)C)[C@H](Cc2ccccc2)[C@H](O)[C@@H](O)[C@H]1Cc1ccccc1 (stereo partly drawn),≥ 1
23,O=C1N(CC#Cc2ccsc2)[C@H](Cc2ccccc2)[C@H](O)[C@@H](O)[C@@H](Cc2ccccc2)N1CC#Cc1ccsc1,≥ 1
24,CC(C)(C)OC(=O)n1cc(C#CCN2C(=O)N(CC#Cc3cnn(C(=O)OC(C)(C)C)c3)[C@H](Cc3ccccc3)[C@H](O)[C@@H](O)[C@H]2Cc2ccccc2)cn1,≥ 1
